Eleven molecules from ChEMBL document CHEMBL2177054, “Rational design of conformationally constrained cyclopentapeptide antagonists for C-x-C chemokine receptor 4 (CXCR4)” (J Med Chem, 2012) can be followed below.

The assay deals with C-X-C chemokine receptor type 4 (Homo sapiens, UniProt P61073). In words: Antagonist activity against human CXCR4 expressed in COS7 cells assessed as inhibition of CXCL12-induced myo-[3H]inositol production by scintillation counting. The class given is functional, cell-based, COS-7.
Chain of C-X-C chemokine receptor type 4 (P61073 whole entry): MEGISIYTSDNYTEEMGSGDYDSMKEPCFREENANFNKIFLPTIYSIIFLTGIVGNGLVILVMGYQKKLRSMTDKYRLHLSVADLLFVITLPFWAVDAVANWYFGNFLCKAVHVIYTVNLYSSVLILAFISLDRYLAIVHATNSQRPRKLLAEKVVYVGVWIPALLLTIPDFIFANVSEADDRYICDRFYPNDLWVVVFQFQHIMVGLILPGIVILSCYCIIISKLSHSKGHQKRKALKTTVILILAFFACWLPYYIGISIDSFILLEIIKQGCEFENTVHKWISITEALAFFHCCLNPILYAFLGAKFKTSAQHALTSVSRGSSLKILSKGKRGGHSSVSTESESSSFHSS

For `N=C(N)NCCC[C@@H]1NC(=O)[C@H](CCCNC(N)=O)NC(=O)[C@@H](Cc2ccc(O)cc2)NC(=O)CNC(=O)[C@H](Cc2ccc3ccccc3c2)NC1=O`, the EC50 stood at 2.9 µM. In the case of `N=C(N)NCCC[C@@H]1NC(=O)[C@@H](Cc2ccc(O)cc2)NC(=O)CNC(=O)[C@H](Cc2ccc3ccccc3c2)NC(=O)[C@H](CCCNC(N)=O)NC1=O` it was above 100 µM.

`N=C(N)NCCC[C@@H]1NC(=O)CNC(=O)[C@@H](Cc2ccc(O)cc2)NC(=O)CNC(=O)[C@H](Cc2ccc3ccccc3c2)NC1=O`: the EC50 is 36 µM. Turning to `N=C(N)NCCC[C@@H]1NC(=O)C2(CCN(C(=N)N)CC2)NC(=O)[C@@H](Cc2ccc(O)cc2)NC(=O)CNC(=O)[C@H](Cc2ccc3ccccc3c2)NC1=O`, the EC50 worked out at 0.26 µM.

Turning to `N=C(N)NCCC[C@@H]1NC(=O)C2(CCNCC2)NC(=O)[C@@H](Cc2ccc(O)cc2)NC(=O)CNC(=O)[C@H](Cc2ccc3ccccc3c2)NC1=O`, the EC50 turned out to be 0.56 µM. In the case of `NC(=O)NCCC[C@@H]1NC(=O)[C@H](CCCNC(N)=O)NC(=O)[C@@H](Cc2ccc(O)cc2)NC(=O)CNC(=O)[C@H](Cc2ccc3ccccc3c2)NC1=O` it was above 100 µM; in that of `N=C(N)NCCC[C@@H]1NC(=O)[C@H](Cc2ccc(N)cc2)NC(=O)[C@@H](Cc2ccc(O)cc2)NC(=O)CNC(=O)[C@H](Cc2ccc3ccccc3c2)NC1=O`, 15 µM. In the case of `N=C(N)NCCC[C@@H]1NC(=O)[C@H](Cc2ccc(NC(=N)N)cc2)NC(=O)[C@@H](Cc2ccc(O)cc2)NC(=O)CNC(=O)[C@H](Cc2ccc3ccccc3c2)NC1=O` it was 0.68 µM; in that of `CC1(C)NC(=O)[C@@H](Cc2ccc(O)cc2)NC(=O)CNC(=O)[C@H](Cc2ccc3ccccc3c2)NC(=O)[C@H](CCCNC(=N)N)NC1=O`, 3.6 µM; in that of `N=C(N)NCCC[C@@H]1NC(=O)[C@H](Cc2ccccc2)NC(=O)[C@@H](Cc2ccc(O)cc2)NC(=O)CNC(=O)[C@H](Cc2ccc3ccccc3c2)NC1=O`, 7.2 µM.

`N=C(N)NCCC[C@@H]1NC(=O)C2(CCCCC2)NC(=O)[C@@H](Cc2ccc(O)cc2)NC(=O)CNC(=O)[C@H](Cc2ccc3ccccc3c2)NC1=O`: the EC50 is 5.4 µM.

In general, EC50 refers to the concentration that produces a half-maximal response.
